Test results published in PMC6726858, “Discovery and characterization of a small‐molecule enteropeptidase inhibitor, SCO‐792” (Pharmacology Research & Perspectives, 2019).
Read-outs that look alike come from different tables or passages of the source. Values belong to the compound of their own block, whether it stands above or below them. *: point of attachment. βNA = c1ccc2cc(N*)ccc2c1

Assays:
[1] = molecular target: T1, recombinant light chain of human enteropeptidase (Homo sapiens, UniProt P98073); assay: Determination of K m value of enteropeptidase for substrates; assay type: biochemical; settings: Michaelis–Menten fit of initial velocities
T1 construct: purchased ITSI‐Biosciences (Johnstown, PA)
From the text: Enteropeptidase is produced as a proenteropeptidase in enterocytes, the activation of which requires digestion to a light chain and a heavy chain. The light chain contains the catalytic active site, whereas the disulfide‐linked heavy chain provides the anchor to the brush border membrane. Thus, we used recombinant light chain of human enteropeptidase to discover its inhibitors. To identify small‐molecule enteropeptidase inhibitors, we designed two specific dual‐labeled substrates and developed enzyme assay systems. In the assay, the energy of the donor of an uncleaved substrate is transferred to the proximal acceptor at the opposite side of the substrate. When protease cleaves the substrate, the pair separates and the donor no longer transfers its emission to the acceptor, which leads to an increase in the fluorescence intensity observed from the donor.15 Enteropeptidase activity was measured with our designed substrates, Cy5‐labeled (Figure 1C) and 5FAM‐labeled substrates (Figure 1E), and commercially available substrate, H‐Gly‐Asp‐Asp‐Asp‐Asp‐Lys‐βNA (GDDDDK‐βNA), naphthylamine (Figure 1A). In our assay system, the fluorescence signal from the enzyme reaction increased in a time‐dependent manner. […]

thrombin = thrombin (Homo sapiens, UniProt P00734); assay: Serine protease selectivity: thrombin; assay type: biochemical; settings: at 10 μmol/L; read-out: inhibitory activity against thrombin
[2] = molecular target: T2, human recombinant enteropeptidase (Homo sapiens, UniProt P98073); assay: Enteropeptidase enzyme assay (human recombinant enteropeptidase, FRET substrate); assay type: biochemical; settings: 120‐minute incubation; read-out: IC50 (95% confidence intervals), human enteropeptidase activity
T2 construct: purchased ITSI‐Biosciences (Johnstown, PA)
Procedure: In the HTS, enzyme and substrate were dissolved in the enteropeptidase assay buffer [50 mmol/L Tricine, pH 8.0, 0.01% (w/v) Tween20, and 10 mmol/L CaCl2]. Twenty‐five nanoliters of compound solution dissolved in DMSO was added to a 1536‐well black plate, and then 2 μL of 90 mU/mL human recombinant enteropeptidase solution was added to the plate and incubated at room temperature for 60 minutes. Next, 2 μL of substrate solution [2.1 μmol/L QSY21‐Gly‐Asp‐Asp‐Asp‐Lys‐Ile‐Val‐Gly‐Gly‐Lys (Cy5)] was added to the plate and incubated at room temperature for 30 minutes. After incubation, 2 μL of 30 mmol/L H2SO4 solution was added to stop the reaction. The fluorescence was measured at an excitation wavelength of 620 nm and an emission wavelength of 685 nm by multilabel plate reader EnVision (PerkinElmer, Waltham, MA).
For kinetic analysis, compounds were dissolved in DMSO and then diluted in the enteropeptidase assay buffer. […] The fluorescence was measured every minute at an excitation wavelength of 485 nm and an emission wavelength of 520 nm using an EnVision multilabel plate reader. The progress curves were fitted to the following equation to determine the values for k obs, the apparent rate constant from initial rate v 0 to steady state rate v s:(1) F=vst+(v0-vs)(1-e^-kobst)/kobs+F0, where t is the time, F is the fluorescence, and F 0 is the fluorescence at time t = 0. […]

chymotrypsin = assay: Serine protease selectivity: chymotrypsin; assay type: biochemical; settings: at 10 μmol/L
[3] = molecular target: T2, human recombinant enteropeptidase; assay: Kinetic analysis of enteropeptidase inhibition (progress curves, k obs); assay type: biochemical; settings: for k inact/K I: 5FAM‐labeled substrate 0.7 μmol/L, corrected for [S]/Km
Procedure: For kinetic analysis, compounds were dissolved in DMSO and then diluted in the enteropeptidase assay buffer. Five microliters of compound solution was added to a 384‐well black plate followed by 5 μL of substrate solution [2.1 μmol/L 5FAM‐Abu‐Gly‐Asp‐Asp‐Asp‐Lys‐Ile‐Val‐Gly‐Gly‐Lys (CPQ2)‐Lys‐Lys‐NH2] and 5 μL of 24 mU/mL human recombinant enteropeptidase solution and mixed. The final concentration of substrate was 0.7 μmol/L, which is almost the same as the K m value. The fluorescence was measured every minute at an excitation wavelength of 485 nm and an emission wavelength of 520 nm using an EnVision multilabel plate reader. The progress curves were fitted to the following equation to determine the values for k obs, the apparent rate constant from initial rate v 0 to steady state rate v s:(1) F=vst+(v0-vs)(1-e^-kobst)/kobs+F0, where t is the time, F is the fluorescence, and F 0 is the fluorescence at time t = 0.
The k inact/K I,app value was determined as the slope of the [I] vs k obs plot, and the corrected k inact/K I value was also estimated according to the following equation:(2) kinact/KI,app=kinact/KI/(1+[S]/Km), where [I] is the concentration of inhibitor, [S] is the concentration of substrate, and K m is the Michaelis–Menten constant.

[4] = molecular target: T2, human recombinant enteropeptidase; assay: Dissociation assay (rapid dilution); assay type: biochemical
Procedure: For the dissociation assay, compounds were dissolved in DMSO and then diluted in the enteropeptidase assay buffer. Ten microliters of compound solution was added to a 96‐well plate, and then 10 μL of 100 mU/mL human recombinant enteropeptidase solution was added to the plate and incubated at room temperature for 120 minutes. The concentration of the compound was equal to 10‐fold of the IC50 value upon incubation for 120 minutes. After this incubation, 2 μL of an compound‐enzyme mixture was transferred to a 96‐well black plate, and then 200 μL of substrate solution [3 μmol/L 5FAM‐Abu‐Gly‐Asp‐Asp‐Asp‐Lys‐Ile‐Val‐Gly‐Gly‐Lys(CPQ2)‐Lys‐Lys‐NH2] was added to the well. By its rapid dilution, the concentration of the inhibitor dropped from 10‐fold above the IC50 to 10‐fold below it. The fluorescence was measured every […] at an excitation wavelength of 485 nm and an emission wavelength of 520 nm using an EnVision multilabel plate reader. The progress curves were fitted to the following equations to determine the values for k off and dissociation half‐life, t 1/2.(3) F=vst+((v0-vs)(1-e^-kofft))/koff+F0 (4) t1/2=ln(2)/koff

factor Xa = factor Xa (Homo sapiens, UniProt P00742); assay: Serine protease selectivity: factor Xa; assay type: biochemical; settings: at 10 μmol/L; read-out: inhibitory activity against factor Xa
DPP‐4 = DPP‐4 (Homo sapiens, UniProt P27487); assay: Serine protease selectivity: DPP‐4; assay type: biochemical; settings: at 10 μmol/L; read-out: inhibitory activity against DPP‐4
[5] = Pharmacokinetic study in rats; assay type: in vivo, Sprague‐Dawley rats; settings: for AUC(0-t): read-out: AUC0–24 h
Procedure: Male Sprague‐Dawley rats were obtained from Charles River Laboratories Japan, Inc. (Yokohama, Japan). A pharmacokinetic study was conducted when the animals were 8 weeks old. For oral administration, SCO‐792 was suspended in a 0.5% (w/v) methylcellulose solution. For intravenous administration, SCO‐792 was dissolved in DMSO and added with saline to prepare a dosing formulation at a concentration of 0.2 mg/mL (DMSO:saline = 2:8 (v/v)). The oral dosing formulations were mixed well and given to fed‐male rats at single doses of 10 mg/5 ml/kg using polypropylene syringes with gavage needles. The intravenous dosing formulation was injected into the femoral vein of fed‐male rats at a dose of 0.2 mg/1 ml/kg using polypropylene syringes with needles under anesthesia with isoflurane. The blood was collected at the indicated time points, and the plasma concentrations of SCO‐792 were determined by high‐performance liquid chromatography/tandem mass spectrometry.

[6] = system: plasma branched‐chain amino acids (BCAA); assay: Oral protein challenge in rats (plasma BCAA); assay type: in vivo, Sprague‐Dawley rats; settings: 10, 30 mg/kg oral, ≤4 hour prior to whey protein load 2.5 g/kg
Procedure: Male Sprague‐Dawley rats were obtained from CLEA Japan Inc. (Tokyo, Japan). Eight‐week‐old rats were randomized into three groups on the basis of body weight and body weight change before the experiment (n = 4). SCO‐792 (10, 30 mg/kg in a 0.5% (w/v) methylcellulose solution) was then orally administered 1, 2, 4, and 6 hours before an oral whey protein load (2.5 g/kg; SAVAS whey protein 100, Meiji, Japan), and blood samples were collected at indicated time points for the measurement of plasma branched‐chain amino acids (BCAA).
Plasma BCAA concentration was measured using an enzymatic spectrophotometric assay as described by Beckett.14 Briefly, bacterial leucine dehydrogenase was used to catalyze the oxidation of BCAA, and the production of NADH was measured using a spectrophotometer (excitation 355 nm, emission 460 nm). L‐leucine was used to generate a standard curve to determine sample concentrations.

factor XIIa = molecular target: T3, factor XIIa (Homo sapiens, UniProt P00748); assay: Serine protease selectivity: factor XIIa; assay type: biochemical; settings: at 10 μmol/L; read-out: inhibitory activity against factor XIIa
T3 sequence (P00748 373-615 limits assumed): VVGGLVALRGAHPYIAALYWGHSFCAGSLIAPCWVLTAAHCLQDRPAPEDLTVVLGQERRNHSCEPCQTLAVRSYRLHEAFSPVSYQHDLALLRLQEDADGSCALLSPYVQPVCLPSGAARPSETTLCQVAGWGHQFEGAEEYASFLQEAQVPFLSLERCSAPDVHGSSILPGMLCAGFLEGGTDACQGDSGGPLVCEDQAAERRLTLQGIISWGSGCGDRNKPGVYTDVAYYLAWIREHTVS

plasma kallikrein = plasma kallikrein (Homo sapiens, UniProt P03952); assay: Serine protease selectivity: plasma kallikrein (Panlabs Enzymatic Assay Services, Eurofins); assay type: biochemical
plasmin = plasmin (Homo sapiens, UniProt P00747); assay: Serine protease selectivity: plasmin (Panlabs Enzymatic Assay Services, Eurofins); assay type: biochemical
Chemical stability = assay type: physicochemical
[7] = 120 min preincubation, rapid dilution
[8] = male, Sprague-Dawley, rat, in vivo, intravenous, 0.2 mg/kg, mean ± SD (n = 3)
[9] = male, Sprague-Dawley, rat, in vivo, oral, 10 mg/kg, mean ± SD (n = 3)

T2 sequence (P98073 785-1019 limits assumed): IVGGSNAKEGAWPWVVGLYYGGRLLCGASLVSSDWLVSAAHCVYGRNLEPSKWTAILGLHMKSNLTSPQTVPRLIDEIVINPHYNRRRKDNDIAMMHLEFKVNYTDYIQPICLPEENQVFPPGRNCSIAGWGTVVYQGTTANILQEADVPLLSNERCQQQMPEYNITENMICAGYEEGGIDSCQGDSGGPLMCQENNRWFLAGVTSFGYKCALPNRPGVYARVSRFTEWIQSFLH
T1 sequence (P98073 785-1019 limits assumed): as above
Sequence of DPP‐4 (P27487 whole entry, species assumed): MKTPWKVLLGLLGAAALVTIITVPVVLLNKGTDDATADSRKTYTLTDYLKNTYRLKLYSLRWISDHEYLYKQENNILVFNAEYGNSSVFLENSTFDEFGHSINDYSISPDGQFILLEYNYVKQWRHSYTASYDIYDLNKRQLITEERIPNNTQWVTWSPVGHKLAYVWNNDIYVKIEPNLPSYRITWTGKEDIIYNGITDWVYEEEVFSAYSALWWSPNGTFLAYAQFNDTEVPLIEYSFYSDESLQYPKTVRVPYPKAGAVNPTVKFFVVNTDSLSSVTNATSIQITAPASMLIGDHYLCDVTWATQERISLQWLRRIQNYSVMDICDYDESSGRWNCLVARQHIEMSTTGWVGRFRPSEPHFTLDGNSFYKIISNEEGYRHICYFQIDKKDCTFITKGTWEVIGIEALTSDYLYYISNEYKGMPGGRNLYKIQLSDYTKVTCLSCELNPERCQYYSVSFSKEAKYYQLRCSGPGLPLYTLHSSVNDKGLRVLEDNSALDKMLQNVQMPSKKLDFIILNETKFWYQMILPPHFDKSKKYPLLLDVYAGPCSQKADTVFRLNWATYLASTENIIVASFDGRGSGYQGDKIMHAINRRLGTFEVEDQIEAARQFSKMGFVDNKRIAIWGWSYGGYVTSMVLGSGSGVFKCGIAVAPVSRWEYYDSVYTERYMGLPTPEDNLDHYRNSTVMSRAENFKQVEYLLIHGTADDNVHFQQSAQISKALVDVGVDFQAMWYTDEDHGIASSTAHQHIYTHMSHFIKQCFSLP
Sequence of factor Xa (P00742 235-488 limits assumed): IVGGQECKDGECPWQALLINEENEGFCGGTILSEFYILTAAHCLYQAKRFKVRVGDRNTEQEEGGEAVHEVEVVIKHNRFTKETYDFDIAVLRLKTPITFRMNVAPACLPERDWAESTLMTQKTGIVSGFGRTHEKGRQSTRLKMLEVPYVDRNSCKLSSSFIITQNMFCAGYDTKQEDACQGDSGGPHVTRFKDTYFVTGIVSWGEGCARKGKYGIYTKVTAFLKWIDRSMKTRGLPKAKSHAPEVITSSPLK
Sequence of factor Xa (P00742 41-179 partner limits assumed): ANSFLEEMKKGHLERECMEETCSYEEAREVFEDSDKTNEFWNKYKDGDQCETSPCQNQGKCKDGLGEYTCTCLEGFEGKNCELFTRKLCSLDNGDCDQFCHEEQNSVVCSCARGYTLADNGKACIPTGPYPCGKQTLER
Sequence of plasma kallikrein (P03952 391-638 limits assumed, species assumed): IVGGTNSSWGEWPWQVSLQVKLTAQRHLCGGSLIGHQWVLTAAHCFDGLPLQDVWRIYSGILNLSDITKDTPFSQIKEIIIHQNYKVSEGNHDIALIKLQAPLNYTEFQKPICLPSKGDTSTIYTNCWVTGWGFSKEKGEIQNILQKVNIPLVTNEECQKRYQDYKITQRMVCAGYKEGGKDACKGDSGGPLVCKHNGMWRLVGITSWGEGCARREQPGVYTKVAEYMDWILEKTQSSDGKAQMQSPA
Sequence of plasma kallikrein (P03952 20-390 partner limits assumed, species assumed): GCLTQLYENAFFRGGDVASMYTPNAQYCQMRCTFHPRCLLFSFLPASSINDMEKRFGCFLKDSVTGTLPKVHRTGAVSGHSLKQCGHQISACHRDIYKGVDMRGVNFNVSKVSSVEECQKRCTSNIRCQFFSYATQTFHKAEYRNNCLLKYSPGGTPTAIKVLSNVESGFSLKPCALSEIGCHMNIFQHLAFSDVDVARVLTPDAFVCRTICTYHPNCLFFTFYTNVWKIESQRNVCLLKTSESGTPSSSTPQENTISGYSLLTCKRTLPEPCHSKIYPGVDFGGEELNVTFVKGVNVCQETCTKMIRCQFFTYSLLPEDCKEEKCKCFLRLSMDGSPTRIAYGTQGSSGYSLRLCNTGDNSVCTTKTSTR
Sequence of plasmin (P00747 581-810 limits assumed, species assumed): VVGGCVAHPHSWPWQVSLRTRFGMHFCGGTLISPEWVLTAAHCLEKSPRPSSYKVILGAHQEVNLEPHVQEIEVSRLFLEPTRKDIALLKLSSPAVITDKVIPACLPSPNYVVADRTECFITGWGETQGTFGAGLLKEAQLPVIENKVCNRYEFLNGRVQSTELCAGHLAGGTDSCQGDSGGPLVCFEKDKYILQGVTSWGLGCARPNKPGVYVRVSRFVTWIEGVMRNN
Sequence of plasmin (P00747 97-580 partner limits assumed, species assumed): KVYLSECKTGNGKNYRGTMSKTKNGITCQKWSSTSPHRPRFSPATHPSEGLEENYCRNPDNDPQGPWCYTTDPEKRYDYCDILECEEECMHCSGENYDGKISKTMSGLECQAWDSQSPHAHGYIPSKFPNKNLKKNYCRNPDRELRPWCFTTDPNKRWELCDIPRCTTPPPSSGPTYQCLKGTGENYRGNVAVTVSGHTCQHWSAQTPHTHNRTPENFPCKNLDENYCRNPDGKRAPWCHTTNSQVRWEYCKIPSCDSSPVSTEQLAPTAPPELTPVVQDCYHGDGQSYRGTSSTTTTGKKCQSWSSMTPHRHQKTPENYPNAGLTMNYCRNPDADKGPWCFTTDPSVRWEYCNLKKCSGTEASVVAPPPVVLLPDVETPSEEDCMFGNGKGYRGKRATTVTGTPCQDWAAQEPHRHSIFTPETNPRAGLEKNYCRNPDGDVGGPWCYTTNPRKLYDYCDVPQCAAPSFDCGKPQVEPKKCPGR

K m value for enteropeptidase [1]: 0.7 µM
Compound: 5FAM‐Abu‐Gly‐Asp‐Asp‐Asp‐Lys‐Ile‐Val‐Gly‐Gly‐Lys (CPQ2)‐Lys‐Lys‐NH2 [5FAM‐labeled substrate]

Compound: N=C(N)Nc1ccc(C(=O)Oc2ccc3c(c2)OC[C@H]3CC(=O)N[C@@H](CC(=O)O)C(=O)O)cc1.O [SCO‐792, N‐({(3S)‐6‐[(4‐carbamimidamidobenzoyl)oxy]‐2,3‐dihydro‐1‐benzofuran‐3‐yl}acetyl)‐L‐aspartic acid hydrate]
inhibition at 10 µM (thrombin): < 50% | IC50 [2]: 5.4 nM | inhibitory activity against chymotrypsin (chymotrypsin): < 50% | time dependence of enteropeptidase inhibition [3]: time‐dependent | k inact/K I [3]: 82 000 /mol/L s | reversibility of inhibition [4]: reversible | dissociation t 1/2 [4, 7]: 14 h | koff [4, 7]: 1.31e-05 s⁻¹ | inhibition at 10 µM (factor Xa): < 50% | inhibition at 10 µM (DPP‐4): < 50% | BA ([5]; from AUC0‐24 h oral 10 mg/kg vs intravenous 0.2 mg/kg): 0.4% | AUC(0-inf) [5, 8]: 304 ± 30 ng·h/mL | half-life [5, 8]: 5.2 ± 1.8 h | AUC(0-t) [5, 8]: 303 ± 23 ng·h/mL | clearance ([5]; male, Sprague-Dawley, rat, in vivo, intravenous, 0.2 mg/kg, mean ± SD (n = 3), read-out: CLp (converted)): 11.1 mL/min/kg | Vd ([5]; male, Sprague-Dawley, rat, in vivo, intravenous, 0.2 mg/kg, mean ± SD (n = 3), read-out: Vss): 1.29 ± 0.299 L/kg | Cmax at 5 min ([5]; male, Sprague-Dawley, rat, in vivo, intravenous, 0.2 mg/kg, observed at 5 minutes, mean ± SD (n = 3), read-out: C max (C5 min)): 564 ± 58 ng/mL | AUC(0-inf) [5, 9]: 49.8 ± 5.4 ng·h/mL | Cmax [5, 9]: 6.6 ± 1.36 ng/mL | Tmax [5, 9]: 1.7 ± 0.6 h | half-life [5, 9]: 4.4 ± 0.5 h | AUC(0-t) [5, 9]: 54.1 ± 7.5 ng·h/mL | effect on plasma BCAA elevations induced by oral protein dosing [6]: effectively and dose‐dependently inhibited | inhibition at 10 µM (factor XIIa): < 50% | IC50 (plasma kallikrein): 16 nM | IC50 (plasmin): 460 nM

Compound: Cc1cc(OC(=O)c2ccc(NC(=N)N)cc2)no1 [T‐0046812]
IC50 [2]: 140 nM | time dependence of enteropeptidase inhibition [3]: time‐dependent | k inact/K I [3]: 5300 mol⁻¹ L⁻¹ s⁻¹ | chemical stability (Chemical stability; pH 1.2): unstable | chemical stability (Chemical stability; pH 6.8): unstable

K m value for enteropeptidase [1]: 230 µM
Compound: H-GDDDDK-βNA [GDDDDK‐βNA]
